These results are taken from PubChem BioAssay AID652110 (The Scripps Research Institute Molecular Screening Center, 2013).

For orientation: inhibition means the change of the read-out against control, counted positive when it falls.

Active and inactive are the calls of the source. The rule behind the calls is not given here.

The assay deals with Serine/threonine-protein phosphatase PP1-alpha catalytic subunit (Homo sapiens) (UniProt P62136). In words: inhibition of PP1 activity on phosphorylase substrate – biochemical, radiolabel, 32P-phosphorylase substrate, single concentration, PP1 inhibitor probe project, late-stage follow-up (AID 652110). Conditions: PP1 dephosphorylation of 32P-glycogen phosphorylase, at 50 µM, stronger effect = higher value.
Chain of Serine/threonine-protein phosphatase PP1-alpha catalytic subunit (Homo sapiens) (P62136 whole entry, looked up): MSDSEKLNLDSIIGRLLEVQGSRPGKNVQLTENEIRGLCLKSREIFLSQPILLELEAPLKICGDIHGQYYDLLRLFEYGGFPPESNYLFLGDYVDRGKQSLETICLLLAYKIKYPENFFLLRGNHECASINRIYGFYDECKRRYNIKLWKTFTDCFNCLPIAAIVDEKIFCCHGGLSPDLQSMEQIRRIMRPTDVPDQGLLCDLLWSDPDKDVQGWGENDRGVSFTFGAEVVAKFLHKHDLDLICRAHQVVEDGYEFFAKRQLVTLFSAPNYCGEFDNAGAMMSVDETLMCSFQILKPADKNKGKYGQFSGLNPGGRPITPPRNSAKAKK
On to `COc1ccc2c(Cl)c(C(=O)N/N=C/c3ccc4c(c3)OCO4)sc2c1`, for which the inhibition was 33.4% (inactive).

In the case of `O=C(NC1(O)C(=O)c2ccccc2C1=O)c1c(Cl)cccc1Cl`, the inhibition is 33.1% (inactive).

Consider `Cc1ccc(C(=O)NC2(O)C(=O)c3ccccc3C2=O)cc1C`, for which the inhibition was 29.6% (inactive).

On to `COc1cnc(-c2ccccn2)nc1Oc1cccc(C(F)(F)F)c1`, for which the inhibition was 0.507% (inactive).

Take `CCOC(=O)c1cnc(-n2cc(C)cn2)nc1NCc1ccc2c(c1)OCO2`: the inhibition was 21.6% (inactive).

Turning to `N#Cc1c(N2CCCC(O)C2)nc(N)c2c(N)nc3c(c12)CC(=O)N3C12CC3CC(CC(C3)C1)C2` (stereo not given), the inhibition was 24.2% (inactive).

`N#Cc1c(-c2ccc(Cl)cc2)cc(-c2cccs2)nc1SCC(=O)O`: the inhibition is 81.6%.

For the compound `COc1ccc(Cl)cc1C(=O)Nc1cccc(-c2ccc3nncn3n2)c1`, the inhibition was 61.7% (inactive).

In the case of `CCOC(=O)c1nn(-c2ccc(C)cc2)c(=O)c2c(N)scc12`, the inhibition was 12.3% (inactive).

As for `CCOC(=O)c1cnc(-n2nc(C)cc2C)nc1NCc1ccccc1`, the inhibition was 7.11% (inactive).

With `COc1cnc(-c2ccccn2)nc1Oc1cccc(Cl)c1`, the inhibition was 3.5% (inactive).

For the compound `O=S(=O)(Cc1cc(NCc2ccccc2)nc(-c2ccccn2)n1)c1ccccc1`, the inhibition was 11.7% (inactive).

Take `COc1cnc(-c2ccccn2)nc1Sc1ccccc1Cl`: the inhibition is 9.17% (inactive).

For the compound `COc1cnc(-c2ccccn2)nc1Sc1cccc(Cl)c1`, the inhibition was 23% (inactive).

Regarding `O=C1CCCC2=C1C1(O)C(=O)c3ccccc3C1(O)O2` (stereo not given), the inhibition is 19.8% (inactive).

Consider `Cc1ccc(C(=O)NNc2cc(N3CCCC3)nc(N3CCCC3)n2)cc1`, for which the inhibition was 14.4% (inactive).

In the case of `c1ccc(-c2nccc(-c3ccc(-n4cnc5ccccc54)cc3)n2)nc1`, the inhibition was 43% (inactive).

Take `O=C(Nc1nc(-c2ccccn2)cs1)C1CC(=O)N(c2ccc3c(c2)OCCO3)C1` (stereo not given): the inhibition was 19.7% (inactive).

On to `CCCCN(CC)c1nc(N)c2c(N)nc(OCC)cc2c1C#N`, for which the inhibition is 17.2% (inactive).

For `Oc1cccc(/C=N/Nc2cc(N3CCCC3)nc(N3CCCC3)n2)c1`, the inhibition is 20.3% (inactive).

Take `Nc1nc(-c2ccccn2)nc(N)c1Cc1ccc(Cl)cc1Cl`: the inhibition was 22.1% (inactive).

With `COc1ccc(NC(=O)C2C3CCC(O3)C2C(=O)O)c(OC)c1` (stereo not given), the inhibition was 73.9%.

Consider `O=C(O)c1cc(-c2ccc(Cl)cc2)n(-c2cccc(Cl)c2)n1`, for which the inhibition is 12% (inactive).

On to `COc1ccc(Sc2nc(-c3ccccn3)ncc2OC)cc1`, for which the inhibition was -0.0224% (inactive).

For `Nc1cc2nsnc2cc1Br`, the inhibition was 27.9% (inactive).

As to `CN1CCN(C(c2ccccn2)c2cc(Cl)c3cccnc3c2O)CC1` (stereo not given), the inhibition is 97%.

With `COc1ccccc1Sc1nc(-c2ccccn2)ncc1OC`, the inhibition is -0.402% (inactive).

As to `COc1cc(Br)c(C(=O)c2nccc3cc(OC)c(OC)cc23)cc1OC`, the inhibition was 9.5% (inactive).

As for `CCOC(=O)c1sc2nc3c(SCC(=O)O)cc(C(=O)c4cc(F)ccc4O)cn3c(=O)c2c1C`, the inhibition was 92.2%.

On to `COc1cnc(-c2ccccn2)nc1Sc1ccc(Cl)cc1`, for which the inhibition was 12.2% (inactive).

Regarding `COc1ccc(C(=O)c2nccc3cc(OC)c(OC)cc23)cc1OC`, the inhibition is 9.58% (inactive).

As for `CCOC(=O)c1sc(N2C(=O)C(O)=C(C(=O)c3ccco3)C2c2cccc([N+](=O)[O-])c2)nc1C` (stereo not given), the inhibition was 51.3% (inactive).

Turning to `O=C(O)c1cc(-c2ccc(Cl)c(Cl)c2)n(-c2ccccc2)n1`, the inhibition is 12.2% (inactive).

With `COc1ccc(CN2C(=O)Cc3c2nc(N)c2c(N)nc(N4CCCCC4)c(C#N)c32)cc1`, the inhibition was 45.7% (inactive).

Turning to `Oc1ccc(/C=N/Nc2cc(N3CCOCC3)nc(N3CCOCC3)n2)c(O)c1`, the inhibition is 20.3% (inactive).

In the case of `COc1ccc(Cn2c(N)c(C(=O)NCc3ccco3)c3nc4ccccc4nc32)cc1OC`, the inhibition was 8.99% (inactive).

`O=C(NC1(O)C(=O)c2ccccc2C1=O)c1ccccc1`: the inhibition is 30.4% (inactive).

Take `O=C(O)c1n[nH]nc1-c1ccccc1`: the inhibition is 22.4% (inactive).

`O=C(NC1(O)C(=O)c2ccccc2C1=O)c1ccc(C(F)(F)F)cc1`: the inhibition was 39.2% (inactive).

For `COc1cnc(-c2ccccn2)nc1Sc1ccccc1`, the inhibition was 0.752% (inactive).

Consider `O=C(O)c1cc(-c2ccc(Cl)c(Cl)c2)n(-c2ccc(F)cc2)n1`, for which the inhibition was 8.75% (inactive).

In the case of `CCOC(=O)C1=C(C)OC2(O)c3ccccc3C(=O)C12O` (stereo not given), the inhibition is 17.4% (inactive).

`CCOc1ccc(NC(=S)Nc2ccc3nsnc3c2)cc1`: the inhibition was 9.35% (inactive).

For the compound `COc1cnc(-c2ccccn2)nc1Sc1ccc(C)cc1`, the inhibition was 9.79% (inactive).

Consider `CC(C)(CS(=O)(=O)[O-])NC(=O)CC[N+](C)(C)CCO`, for which the inhibition is 3.71% (inactive).

With `O=C(O)C1C2CCC(O2)C1C(=O)NC1CCCCC1` (stereo not given), the inhibition is 66.1% (inactive).

Take `COc1cnc(-c2ccccn2)nc1Sc1ccc(F)cc1`: the inhibition was 3.69% (inactive).

As for `COc1ccc(NC(=S)Nc2ccc3nsnc3c2)cc1`, the inhibition is 13.3% (inactive).

Regarding `Clc1ccc(-n2nnnc2-c2cnc(-c3ccccn3)nc2-c2cccs2)cc1`, the inhibition is 0.651% (inactive).

In the case of `CCCN(CC1CC1)c1nc(N)c2c(N)nc(OC)cc2c1C#N`, the inhibition was 8.48% (inactive).

For the compound `CCn1c2ccccc2c2cc(NC(=O)COC(=O)c3ccc(NC(=O)CC#N)cc3)ccc21`, the inhibition is 74.6%.

For `CCOC(=O)c1cnc(-n2nc(C)cc2C)nc1NC(C)c1ccccc1` (stereo not given), the inhibition is 15.8% (inactive).

As to `Cc1[nH]n(-c2ccccc2)c(=O)c1C(c1ccc([N+](=O)[O-])cc1)c1c(C)[nH]n(-c2ccccc2)c1=O`, the inhibition was 48.3% (inactive).

For the compound `CCOC(=O)c1cnc(-n2nc(C)cc2C)nc1NCCc1ccccc1`, the inhibition was 16.9% (inactive).

Regarding `CCOC(=O)c1cnc(-n2nc(C)cc2C)nc1NC1CCCCC1`, the inhibition is 16.3% (inactive).

With `Oc1ccccc1/C=N/Nc1cc(N2CCCC2)nc(N2CCCC2)n1`, the inhibition was 17.2% (inactive).

On to `c1ccc(Nc2nc(-c3ccccn3)cs2)cc1`, for which the inhibition is 13.2% (inactive).

On to `Cc1cc(C)c(S(=O)(=O)/N=C2\C=C(Sc3ncn[nH]3)C(=O)c3ccccc32)cc1C`, for which the inhibition was 30.5% (inactive).

As to `CC(=O)C(C(C)=O)C1(O)C(=O)c2ccccc2C1=O`, the inhibition was 24.6% (inactive).

For `Cc1ccc(-n2nc(C(=O)O)cc2-c2ccc(Cl)cc2)cc1`, the inhibition is 5.4% (inactive).

As for `O=C1Nc2ccccc2N2CCCC12` (stereo not given), the inhibition was 9.82% (inactive).

For the compound `Cc1nnc(NC(=O)C2C3C=CC(O3)C2C(=O)O)s1` (stereo not given), the inhibition was 56.1% (inactive).

Regarding `COc1ccc(OCCCC(=O)Nc2nc(-c3ccccn3)cs2)cc1`, the inhibition is 19.4% (inactive).

`O=c1[nH]c(Nc2ccccc2)cc2ccccc12`: the inhibition was 19% (inactive).

Regarding `CCCCn1c(NC(=O)c2ccco2)c(C(=O)OCC)c2nc3ccccc3nc21`, the inhibition is 29.8% (inactive).
